Reference: the supplement of paper PMC10307832

Experiments:
Experiment in all cases: relative viability (nuclei count vs DMSO), 5 days (fraction); higher = more cells survive
[1] = compound: CC1=NC=CC(=C1)C2=CC=C(C=C2)CC(=O)NC3=CC=C(C=C3)C4=CN=CC=C4 [Wnt-C59] + CS(=O)(=O)CCNCc1ccc(-c2ccc3ncnc(Nc4ccc(OCc5cccc(F)c5)c(Cl)c4)c3c2)o1 [Lapatinib] (partner 2 µM)
Outline: (§1)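 Values are medians from duplicate plates. Each reflects relative viability, defined as the nuclei count of treated wells over that of vehicle wells. Lung cancer cell lines in 1536-well plates were pin-tool dosed one day after seeding with one drug alone or with a fixed anchor-drug dose plus five library-drug doses (not always all listed) in √10 steps, then fixed, stained and imaged at 4× after 5 days.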

[2] = compound: CS(=O)(=O)CCNCc1ccc(-c2ccc3ncnc(Nc4ccc(OCc5cccc(F)c5)c(Cl)c4)c3c2)o1 [Lapatinib] + CC(C)C[C@H](NC(=O)[C@H](Cc1ccccc1)NC(=O)c1cnccn1)B(O)O [Bortezomib] (partner 0.002 µM)
Outline: as §1

[3] = compound: CS(=O)(=O)CCNCc1ccc(-c2ccc3ncnc(Nc4ccc(OCc5cccc(F)c5)c(Cl)c4)c3c2)o1 [Lapatinib] + C[C@@H](Oc1cc(-c2cnn(C3CCNCC3)c2)cnc1N)c1c(Cl)ccc(F)c1Cl [Crizotinib] (partner 1 µM)
Outline: as §1

[4] = compound: CS(=O)(=O)CCNCc1ccc(-c2ccc3ncnc(Nc4ccc(OCc5cccc(F)c5)c(Cl)c4)c3c2)o1 [Lapatinib] + NC(=O)Nc1cc(-c2cccc(F)c2)sc1C(=O)N[C@H]1CCCNC1 [AZD7762] (partner 0.2 µM)
Outline: as §1

Cell Line	relative viability ([1]; first compound 0.001 µM)	relative viability ([1]; first compound 0.01 µM)	relative viability ([1]; first compound 0.03162 µM)	relative viability ([1]; first compound 0.1 µM)	relative viability ([2]; first compound 0.06325 µM)	relative viability ([2]; first compound 0.2 µM)	relative viability ([2]; first compound 0.6325 µM)	relative viability ([2]; first compound 2 µM)	relative viability ([3]; first compound 0.02 µM)	relative viability ([3]; first compound 0.06325 µM)	relative viability ([3]; first compound 0.2 µM)	relative viability ([3]; first compound 0.6325 µM)	relative viability ([3]; first compound 2 µM)	relative viability ([4]; first compound 0.02 µM)	relative viability ([4]; first compound 0.06325 µM)	relative viability ([4]; first compound 0.2 µM)	relative viability ([4]; first compound 0.6325 µM)	relative viability ([4]; first compound 2 µM)	relative viability ([2]; first compound 0.02 µM)
LOU-NH91	0.76	0.709	0.768	0.771	0.469	0.522	0.499	0.544	0.697	0.626	0.599	0.547	0.534	0.76	0.58	0.696	0.703	0.599	–
LU99A	0.905	0.999	1.07	0.97	0.932	1.15	1.15	0.94	0.591	0.464	0.53	0.582	0.597	0.329	0.217	0.363	0.388	0.329	1.05
LXF-289	0.925	0.903	0.891	0.849	0.931	0.981	1	0.929	0.819	0.85	0.805	0.779	0.743	1.02	1.09	1.05	1.13	0.957	0.972
NCI-H23	1.14	1.11	1.31	0.958	–	1.02	1.07	0.813	–	–	0.504	0.396	0.412	–	–	0.216	0.232	0.154	–
NCI-H322M	0.638	0.585	0.594	0.538	1.02	1.08	1.23	1.3	0.823	0.649	0.912	0.857	0.735	0.557	0.538	0.536	0.475	0.454	1.12
NCI-H358	0.44	0.524	0.474	0.456	–	–	–	–	0.577	–	0.523	0.363	0.26	0.459	0.364	0.379	0.388	0.282	–
NCI-H460	0.863	0.999	1.11	0.889	1.02	1.15	0.984	1.11	0.892	0.953	1.11	0.802	0.983	–	0.62	0.679	0.537	0.387	1.02
NCI-H596	1.07	1.1	1.2	1.13	1.04	0.964	1.03	0.776	0.916	0.849	1	0.997	0.659	–	0.878	0.939	1.1	0.819	1.17
NCI-H647	1.04	1.08	1.21	1.04	0.708	1.11	1.13	0.871	1.01	0.904	1.03	1.03	0.923	–	0.573	0.43	0.583	0.401	0.909
NCI-H650	0.532	0.846	0.895	0.873	0.662	0.653	0.86	0.841	–	0.637	0.872	0.624	0.69	–	0.735	1.03	1.04	0.977	–
NCI-H727	0.891	0.761	0.787	0.966	0.78	1.04	1.09	0.801	0.77	0.663	0.657	0.718	0.572	0.634	–	0.443	0.551	0.395	0.758
NCI-H838	0.901	0.924	1.07	1.08	0.461	0.843	0.829	0.674	0.838	0.764	1.07	0.855	0.757	0.927	0.832	0.904	0.939	0.843	1.08
NCI-H1355	1.04	0.922	1.05	0.842	0.954	1.13	1.2	0.573	–	0.854	1.02	1.02	0.606	0.674	0.627	0.72	0.753	0.549	–
NCI-H1437	0.851	0.8	0.89	0.828	0.46	0.421	0.394	0.39	0.85	0.919	0.94	0.914	1	1.13	1.11	1.1	1.07	1.06	0.523
NCI-H1651	0.838	0.821	0.737	0.783	0.93	0.819	0.859	0.963	0.907	0.845	0.884	0.849	0.904	0.468	0.451	0.337	0.41	0.402	0.994
NCI-H1666	0.675	0.516	0.659	0.75	0.619	0.848	0.877	0.378	0.787	1.05	0.847	0.842	0.357	0.573	0.815	0.762	0.778	0.619	0.761
NCI-H1793	0.787	0.555	0.717	0.855	–	–	–	–	–	–	–	–	–	–	0.355	0.304	0.437	0.186	–
NCI-H1944	0.745	0.795	0.866	0.769	–	–	–	–	–	–	0.811	0.808	0.56	0.504	0.453	0.51	0.47	0.379	–
NCI-H2170	0.265	0.262	0.275	0.271	–	–	–	–	1.13	0.904	0.694	0.475	0.223	0.824	0.574	0.485	0.252	0.14	–
